Test results taken from patent publication US20250368616A1, “NITROGEN-CONTAINING HETEROCYCLIC DERIVATIVE INHIBITOR, AND PREPARATION METHOD THEREFOR AND USE THEREOF” (SHANGHAI HANSOH BIOMEDICAL CO., LTD., priority 2021, published 2025).

System: Ba/F3 EGFR Del19/C797S cells
Experiment: Cell proliferation inhibition assay (Cell Titer-Glo), Ba/F3 EGFR Del19/C797S
Assay type: cell-based
Settings: 72 hours, read-out: Ba/F3 EGFR Del19_C797S IC50
Text: Test Example 2: Cell Proliferation Inhibition Assay
Experimental objective: The objective of this test example is to test the inhibitory activity of compounds on the proliferation of different EGFR C797S drug-resistant mutant cell lines Ba/F3 EGFR Del19/T790M/C797S, Ba/F3 EGFR L858R/T790M/C797S, and Ba/F3 EGFR Del19/C797S.
• Ba/F3 EGFR Del19/T790M/C797S cells were purchased from KYinno Biotechnology Co., Ltd.; • Ba/F3 EGFR Del19/C797S cells were purchased from CoBioer Biosciences Co., Ltd.; • Ba/F3 EGFR L858R/T790M/C797S cells were purchased from CoBioer Biosciences Co., Ltd.; • Cell Titer-Glo was purchased from Promega, with a catalog number of G7573; • RPMI 1640 was purchased from Gibco, with a catalog number of 22400089; • FBS was purchased from Gibco, with a catalog number of 10091148; • cell culture plates were purchased from Corning, with a catalog number of 3610.
The inhibitory activity of the compound on the proliferation of different EGFR C797S drug-resistant mutant cell lines was detected using the Cell Titer-Glo method. The different cell lines were cultured in RPMI 1640 complete culture medium containing 10% FBS under conditions of 37° C. and 5% CO2, the cells were collected by centrifugation when growing to a certain density, and adjusted to appropriate cell density after counting, the cells were spread on a white 96-well plate at 90 μL/well, and cultured in a 37° C., 5% CO2 incubator overnight, prepared compound solutions of different concentrations were added at 10 μL/well, corresponding solvent controls were set, and all wells were cultured in a 37° C., 5% CO2 incubator for 72 hours, 50 μL of CellTiter-Glo solution was added to each well, shook and mixed evenly, and incubated in the dark for 10 minutes, and a BioTek Synergy H1 microplate reader was used for reading.
The luminescence signal value was used to calculate the inhibition rate. Graphpad Prism software was used to fit the concentration and inhibition rate to a nonlinear regression curve, so as to obtain the IC50 value, as shown in Tables 3 and 4 below for details.

IC50 [nM] | Structure (SMILES)
60 | CC(C)c1ccc(N2C[C@H](CS(C)(=O)=O)[C@H]2C)c2cnc(Nc3ccnc(-c4c[nH]nc4Cl)n3)cc12 [Example 10, N-(2-(3-chloro-1H-pyrazol-4-yl)pyrimidin-4-yl)-5-isopropyl-8-((2R,3S)-2-methyl-3-((methanesulfonyl)methyl)azetidin-1-yl)isoquinolin-3-amine]
56 | CC(C)c1ccc(N2C[C@H](CS(C)(=O)=O)[C@H]2C)c2cnc(Nc3ccnc(-c4cnn(C5CC5(F)F)c4)n3)cc12 (stereo partly drawn) [Example 12, N-(2-(1-(2,2-difluorocyclopropyl)-1H-pyrazol-4-yl)pyrimidin-4-yl)-5-isopropyl-8-((2R,3S)-2-methyl-3-((methanesulfonyl)methyl)azetidin-1-yl)isoquinolin-3-amine]
82 | CC(C)c1ccc(N2C[C@H](CS(C)(=O)=O)[C@H]2C)c2cnc(Nc3ccnc(-c4cnn(C5(C#N)CC5)c4)n3)cc12 [Example 13, 1-(4-(4-((5-isopropyl-8-((2R,3S)-2-methyl-3-((methanesulfonyl)methyl)azetidin-1-yl)isoquinolin-3-yl)amino)pyrimidin-2-yl)-1H-pyrazol-1-yl)cyclopropane-1-carbonitrile]
95 | CC(C)c1ccc(N2C[C@H](CS(C)(=O)=O)[C@H]2C)c2cnc(Nc3ccnc(-c4cnn([C@@H](C)C(F)(F)F)c4)n3)cc12 [Example 22A, 5-isopropyl-8-((2R,3S)-2-methyl-3-((methanesulfonyl)methyl)azetidin-1-yl)-N-(2-(1-((S)-1,1,1-trifluoropropan-2-yl)-1H-pyrazol-4-yl)pyrimidin-4-yl)isoquinolin-3-amine]
64 | CC(C)c1ccc(N2C[C@H](CS(C)(=O)=O)[C@H]2C)c2cnc(Nc3ccnc(-c4cnn(C5(CF)CC5)c4)n3)cc12 [Example 29, N-(2-(1-(1-(fluoromethyl)cyclopropyl)-1H-pyrazol-4-yl)pyrimidin-4-yl)-5-isopropyl-8-((2R,3S)-2-methyl-3-((methanesulfonyl)methyl)azetidin-1-yl)isoquinolin-3-amine]
73 | CC(C)c1c(F)cc(N2C[C@H](CS(C)(=O)=O)[C@H]2C)c2cnc(Nc3ccnc(-c4cnn(C)c4)n3)cc12 [Example 39, 6-fluoro-5-isopropyl-N-(2-(1-methyl-1H-pyrazol-4-yl)pyrimidin-4-yl)-8-((2R,3S)-2-methyl-3-((methanesulfonyl)methyl)azetidin-1-yl)isoquinolin-3-amine]
70 | CC(C)c1ccc(N2CC(CC#N)C2)c2cnc(Nc3ccnc(-c4cnn(S(=O)(=O)C5CC5)c4)n3)cc12 [Example 40, 2-(1-(3-((2-(1-(cyclopropylsulfonyl)-1H-pyrazol-4-yl)pyrimidin-4-yl)amino)-5-isopropylisoquinolin-8-yl)azetidin-3-yl)acetonitrile]
41 | COC1(n2cc(-c3nccc(Nc4cc5c(C(C)C)ccc(N6C[C@H](CS(C)(=O)=O)[C@H]6C)c5cn4)n3)cn2)CC1 [Example 49, 5-isopropyl-N-(2-(1-(1-methoxycyclopropyl)-1H-pyrazol-4-yl)pyrimidin-4-yl)-8-((2R,3S)-2-methyl-3-((methanesulfonyl)methyl)azetidin-1-yl)isoquinolin-3-amine]
51 | CC(C)c1ccc(N2C[C@H](CS(C)(=O)=O)[C@H]2C)c2cnc(Nc3ccnc(-c4cnn(C5(CC#N)CC5)c4)n3)cc12 [Example 50, 2-(1-(4-(4-((5-isopropyl-8-((2R,3S)-2-methyl-3-((methanesulfonyl)methyl)azetidin-1-yl)isoquinolin-3-yl)amino)pyrimidin-2-yl)-1H-pyrazol-1-yl)cyclopropyl)acetonitrile]
41 | C=CCn1cc(-c2nccc(Nc3cc4c(C(C)C)ccc(N5C[C@H](CS(C)(=O)=O)[C@H]5C)c4cn3)n2)cn1 [Example 51, N-(2-(1-allyl-1H-pyrazol-4-yl)pyrimidin-4-yl)-5-isopropyl-8-((2R,3S)-2-methyl-3-((methanesulfonyl)methyl)azetidin-1-yl)isoquinolin-3-amine]
49 | CC#CCn1cc(-c2nccc(Nc3cc4c(C(C)C)ccc(N5C[C@H](CS(C)(=O)=O)[C@H]5C)c4cn3)n2)cn1 [Example 52, N-(2-(1-(but-2-yn-1-yl)-1H-pyrazol-4-yl)pyrimidin-4-yl)-5-isopropyl-8-((2R,3S)-2-methyl-3-((methanesulfonyl)methyl)azetidin-1-yl)isoquinolin-3-amine]
49 | C#CCn1cc(-c2nccc(Nc3cc4c(C(C)C)ccc(N5C[C@H](CS(C)(=O)=O)[C@H]5C)c4cn3)n2)cn1 [Example 53, 5-isopropyl-8-((2R,3S)-2-methyl-3-((methanesulfonyl)methyl)azetidin-1-yl)-N-(2-(1-(prop-2-yn-1-yl)-1H-pyrazol-4-yl)pyrimidin-4-yl)isoquinolin-3-amine]
25 | CC(C)c1ccc(N2C[C@H](CS(C)(=O)=O)[C@H]2C)c2cnc(Nc3ccnc(-c4cn(C)nc4C#N)n3)cc12 [Example 55, 4-(4-((5-isopropyl-8-((2R,3S)-2-methyl-3-((methanesulfonyl)methyl)azetidin-1-yl)isoquinolin-3-yl)amino)pyrimidin-2-yl)-1-methyl-1H-pyrazole-3-carbonitrile]
10 | CC(C)c1ccc(N2C[C@H](CS(C)(=O)=O)[C@H]2C)c2cnc(Nc3ccnc(-c4cn(C)nc4C(F)(F)F)n3)cc12 [Example 56, 5-isopropyl-8-((2R,3S)-2-methyl-3-((methanesulfonyl)methyl)azetidin-1-yl)-N-(2-(1-methyl-3-(trifluoromethyl)-1H-pyrazol-4-yl)pyrimidin-4-yl)isoquinolin-3-amine]
26 | CCc1nn(C)cc1-c1nccc(Nc2cc3c(C(C)C)ccc(N4C[C@H](CS(C)(=O)=O)[C@H]4C)c3cn2)n1 [Example 57, N-(2-(3-ethyl-1-methyl-1H-pyrazol-4-yl)pyrimidin-4-yl)-5-isopropyl-8-((2R,3S)-2-methyl-3-((methanesulfonyl)methyl)azetidin-1-yl)isoquinolin-3-amine]
52 | Cc1nn(CCO)cc1-c1nccc(Nc2cc3c(C(C)C)ccc(N4C[C@H](CS(C)(=O)=O)[C@H]4C)c3cn2)n1 [Example 58, 2-(4-(4-((5-isopropyl-8-((2R,3S)-2-methyl-3-((methanesulfonyl)methyl)azetidin-1-yl)isoquinolin-3-yl)amino)pyrimidin-2-yl)-3-methyl-1H-pyrazol-1-yl)ethan-1-ol]
62 | CC(C)c1ccc(N2C[C@H](CS(C)(=O)=O)[C@H]2C)c2cnc(Nc3ccnc(-c4cn(CCO)nc4C(F)(F)F)n3)cc12 [Example 59, 2-(4-(4-((5-isopropyl-8-((2R,3S)-2-methyl-3-((methanesulfonyl)methyl)azetidin-1-yl)isoquinolin-3-yl)amino)pyrimidin-2-yl)-3-(trifluoromethyl)-1H-pyrazol-1-yl)ethan-1-ol]
26 | Cc1nn(C)cc1-c1nccc(Nc2cc3c(C(C)C)ccc(N4CC(NS(C)(=O)=O)C4)c3cn2)n1 [Example 60, N-(1-(3-((2-(1,3-dimethyl-1H-pyrazol-4-yl)pyrimidin-4-yl)amino)-5-isopropylisoquinolin-8-yl)azetidin-3-yl)methanesulfonamide]
40 | CC(C)c1ccc(N2C[C@H](CS(C)(=O)=O)[C@H]2C)c2cnc(Nc3ccnc(-c4cn(C)nc4F)n3)cc12 [Example 62, N-(2-(3-fluoro-1-methyl-1H-pyrazolyl-4-yl)pyrimidin-4-yl)-5-isopropyl-8-((2R,3S)-2-methyl-3-((methanesulfonyl)methyl)azabut-1-yl)isoquinolin-3-amine]
30 | CC(C)c1ccc(C2CC(CS(C)(=O)=O)C2)c2cnc(Nc3ccnc(-c4cn(C)nc4Cl)n3)cc12 (stereo not shown) [Example 63, N-(2-(3-chloro-1-methyl-1H-pyrazol-4-yl)pyrimidin-4-yl)-5-isopropyl-8-(3-((methanesulfonyl)methyl)cyclobutyl)isoquinolin-3-amine]
62 | [2H]C([2H])([2H])n1cc(-c2nccc(Nc3cc4c(C(C)C)ccc(N5C[C@H](CS(C)(=O)=O)[C@H]5C)c4cn3)n2)c([N+](=O)[O-])n1 [Example 64, 5-isopropyl-8-((2R,3S)-2-methyl-3-((methanesulfonyl)methyl)azetidin-1-yl)-N-(2-(1-(methyl-d3)-3-nitro-1H-pyrazol-4-yl)pyrimidin-4-yl)isoquinolin-3-amine]
84 | [2H]C([2H])([2H])n1cc(-c2nccc(Nc3cc4c(C(C)C)ccc(N5C[C@H](CS(C)(=O)=O)[C@H]5C)c4cn3)n2)c(F)n1 [Example 65, N-(2-(3-fluoro-1-(methyl-d3)-1H-pyrazol-4-yl)pyrimidin-4-yl)-5-isopropyl-8-((2R,3S)-2-methyl-3-((methylsulfonyl)methyl)azabut-1-yl)isoquinolin-3-amine]
